# Results reported in patent publication US20240382629A1, “HETEROBIVALENT AND HOMOBIVALENT AGENTS TARGETING FIBROBLAST ACTIVATION PROTEIN ALPHA AND/OR PROSTATE-SPECIFIC MEMBRANE ANTIGEN” (The Johns Hopkins University, priority 2021, published 2024).
# Read-outs that look alike come from different tables or passages of the source.
# Assays:
# Format in all cases: biochemical
# [1] = target: FAP (Homo sapiens (Human), UniProt Q12884); assay: FAP inhibition assay (recombinant enzyme, Z-Gly-Pro-AMC substrate); conditions: for Ki: read-out: FAP Ki
# Protocol: (§1) PSMA binding affinities of the compounds were determined using a competitive inhibition assay as previously reported. […] FAP, prolyl endopeptidase (PREP), and […] (DPPIV) inhibition assays: Recombinant enzymes (FAP, PREP, DPPIV) were purchased from R&D Systems (Minneapolis, MN). […] Z-Gly-Pro-AMC was used as a substrate for FAP and PREP. H-Gly-Pro-AMC was used as a substrate for DPPIV. The recombinant enzyme (0.4 μg/mL) was incubated with varying amounts of the test articles in the presence of the designated substrate (80 μM) for 10 min at room temperature. Fluorescence intensity was measured with 380 nm excitation and 460 nm emission using the Cytation 5 Cell Imaging Multi-Mode Reader (BioTek, Winooski, VT). IC50 and Ki values were obtained using a sigmoidal dose-response function.
# [2] = target: PREP (Homo sapiens (Human), UniProt P48147); assay: PREP inhibition assay (recombinant enzyme, Z-Gly-Pro-AMC substrate)
# Protocol: as §1
# [3] = target: DPPIV (Homo sapiens (Human), UniProt P27487); assay: DPPIV inhibition assay (recombinant enzyme, H-Gly-Pro-AMC substrate); conditions: for IC50: read-out: DPPIV IC50
# Protocol: as §1
# [4] = target: PSMA (Homo sapiens (Human), UniProt Q04609); assay: PSMA competitive inhibition assay (NAAG substrate, LNCaP cell lysate); conditions: for Ki: read-out: PSMA Ki
# Protocol: as §1
# Chain of PREP (P48147 whole entry): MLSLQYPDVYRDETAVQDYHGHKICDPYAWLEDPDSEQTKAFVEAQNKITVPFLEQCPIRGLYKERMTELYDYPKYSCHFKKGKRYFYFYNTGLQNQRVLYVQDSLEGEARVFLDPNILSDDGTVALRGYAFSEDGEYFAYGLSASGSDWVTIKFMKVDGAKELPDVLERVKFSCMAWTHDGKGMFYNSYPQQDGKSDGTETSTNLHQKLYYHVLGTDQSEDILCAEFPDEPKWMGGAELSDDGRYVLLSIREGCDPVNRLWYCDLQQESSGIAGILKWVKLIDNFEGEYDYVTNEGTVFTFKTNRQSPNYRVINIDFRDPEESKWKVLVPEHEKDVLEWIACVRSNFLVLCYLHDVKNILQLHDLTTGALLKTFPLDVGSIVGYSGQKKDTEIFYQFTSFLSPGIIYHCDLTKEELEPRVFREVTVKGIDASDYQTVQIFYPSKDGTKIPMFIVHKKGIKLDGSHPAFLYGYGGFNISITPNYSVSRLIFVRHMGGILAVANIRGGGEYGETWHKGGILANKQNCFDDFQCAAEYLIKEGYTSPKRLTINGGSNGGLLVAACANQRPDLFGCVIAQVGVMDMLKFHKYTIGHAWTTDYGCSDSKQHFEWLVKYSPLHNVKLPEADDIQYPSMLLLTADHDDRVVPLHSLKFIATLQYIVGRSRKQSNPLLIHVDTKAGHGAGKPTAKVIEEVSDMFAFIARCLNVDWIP
# Chain of PSMA (Q04609 whole entry): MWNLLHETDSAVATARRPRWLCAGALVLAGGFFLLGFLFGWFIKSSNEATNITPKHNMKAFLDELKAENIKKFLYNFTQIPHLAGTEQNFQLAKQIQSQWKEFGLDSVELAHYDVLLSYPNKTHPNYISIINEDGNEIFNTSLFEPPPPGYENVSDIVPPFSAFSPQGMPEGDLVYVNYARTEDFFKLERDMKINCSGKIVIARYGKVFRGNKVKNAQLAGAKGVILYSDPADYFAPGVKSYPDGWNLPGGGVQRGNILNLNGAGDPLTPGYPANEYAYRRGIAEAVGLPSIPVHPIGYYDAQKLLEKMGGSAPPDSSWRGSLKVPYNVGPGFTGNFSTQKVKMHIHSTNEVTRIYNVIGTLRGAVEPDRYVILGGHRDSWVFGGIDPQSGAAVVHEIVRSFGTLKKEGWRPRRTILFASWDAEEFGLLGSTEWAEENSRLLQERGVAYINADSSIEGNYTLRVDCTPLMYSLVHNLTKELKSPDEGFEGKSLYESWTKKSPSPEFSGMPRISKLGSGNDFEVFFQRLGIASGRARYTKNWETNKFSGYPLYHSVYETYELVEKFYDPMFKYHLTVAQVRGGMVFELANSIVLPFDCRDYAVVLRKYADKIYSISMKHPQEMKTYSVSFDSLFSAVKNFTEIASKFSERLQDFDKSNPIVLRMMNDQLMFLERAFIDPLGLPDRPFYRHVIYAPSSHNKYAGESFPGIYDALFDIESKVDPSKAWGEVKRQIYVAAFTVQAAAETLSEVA
# Chain of FAP (Q12884 whole entry): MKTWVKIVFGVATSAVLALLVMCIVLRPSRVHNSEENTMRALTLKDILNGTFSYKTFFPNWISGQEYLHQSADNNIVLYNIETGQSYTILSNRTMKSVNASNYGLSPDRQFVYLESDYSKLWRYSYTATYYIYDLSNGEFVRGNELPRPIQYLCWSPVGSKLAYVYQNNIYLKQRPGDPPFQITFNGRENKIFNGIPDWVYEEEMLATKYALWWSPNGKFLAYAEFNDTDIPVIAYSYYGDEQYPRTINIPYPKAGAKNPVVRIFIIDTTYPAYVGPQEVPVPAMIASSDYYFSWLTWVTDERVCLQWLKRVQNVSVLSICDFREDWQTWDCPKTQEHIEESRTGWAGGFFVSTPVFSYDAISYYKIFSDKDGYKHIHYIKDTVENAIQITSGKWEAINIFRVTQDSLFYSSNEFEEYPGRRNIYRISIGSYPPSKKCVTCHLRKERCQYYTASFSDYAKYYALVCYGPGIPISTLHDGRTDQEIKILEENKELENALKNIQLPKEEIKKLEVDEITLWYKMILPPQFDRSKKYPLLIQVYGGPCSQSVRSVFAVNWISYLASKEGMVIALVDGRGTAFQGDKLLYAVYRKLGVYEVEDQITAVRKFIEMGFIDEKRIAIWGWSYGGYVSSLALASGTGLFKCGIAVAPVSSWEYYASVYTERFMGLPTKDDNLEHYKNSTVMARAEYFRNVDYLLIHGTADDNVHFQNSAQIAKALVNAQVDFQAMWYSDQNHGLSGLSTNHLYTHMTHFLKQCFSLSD
# Chain of DPPIV (P27487 whole entry): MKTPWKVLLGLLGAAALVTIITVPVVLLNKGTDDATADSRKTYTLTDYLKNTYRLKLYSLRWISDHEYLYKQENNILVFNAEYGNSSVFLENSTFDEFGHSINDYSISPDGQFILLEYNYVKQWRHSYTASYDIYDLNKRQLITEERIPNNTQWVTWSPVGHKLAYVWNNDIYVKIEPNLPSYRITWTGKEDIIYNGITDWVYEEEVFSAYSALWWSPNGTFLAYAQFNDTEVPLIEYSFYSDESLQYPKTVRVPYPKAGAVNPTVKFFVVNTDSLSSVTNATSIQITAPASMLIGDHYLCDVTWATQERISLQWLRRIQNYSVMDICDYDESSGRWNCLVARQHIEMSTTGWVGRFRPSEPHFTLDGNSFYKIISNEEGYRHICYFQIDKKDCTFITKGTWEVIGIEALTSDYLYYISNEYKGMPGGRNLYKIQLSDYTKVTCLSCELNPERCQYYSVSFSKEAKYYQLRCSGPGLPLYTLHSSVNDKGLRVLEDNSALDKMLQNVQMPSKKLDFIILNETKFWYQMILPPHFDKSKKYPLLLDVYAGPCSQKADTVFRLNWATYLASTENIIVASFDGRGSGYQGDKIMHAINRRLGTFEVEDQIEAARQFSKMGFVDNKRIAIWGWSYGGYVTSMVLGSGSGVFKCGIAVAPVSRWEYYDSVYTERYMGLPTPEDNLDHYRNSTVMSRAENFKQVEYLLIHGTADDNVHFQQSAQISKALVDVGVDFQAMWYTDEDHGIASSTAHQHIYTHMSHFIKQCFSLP
Compound,IC50 ([1]; Table 4) [µM],Ki ([1]; Table 4) [µM],IC50 ([2]; Table 4) [µM],IC50 ([3]; Table 4) [µM],IC50 ([4]; Table 4) [µM],Ki ([4]; Table 4) [µM],Ki [1] [µM],Ki [2] [µM],Ki [3] [µM],Ki [4] [µM],IC50 ([1]; Table 3) [µM],Ki ([1]; Table 3) [µM],IC50 ([2]; Table 3) [µM],IC50 ([3]; Table 3) [µM]
N#CC1CCCN1C(=O)CNC(=O)c1ccnc2ccc(OCCCNC(=O)CCc3cn(CC[C@H](NC(=O)CN4CCN(CC(=O)O)CCN(CC(=O)O)CC4)C(=O)NCCCCCC(=O)NCCCC[C@H](NC(=O)N[C@@H](CC(=O)O)C(=O)O)C(=O)O)nn3)cc12 (some centres unmarked) [SRI-07-42],0.00223,0.00045,11.2,9.91,4.71,0.94,,,,,,,,
N#C[C@@H]1CCCN1C(=O)CNC(=O)c1ccnc2ccc(OCCCNC(=O)CCc3cn(CCOCCOCCOCCC(=O)N[C@@H](CCCCNC(=O)CCC(C(=O)O)N4CCN(CC(=O)O)CCN(CC(=O)O)CCN(CC(=O)O)CC4)C(=O)NCCCCC(=O)N(CCCC[C@H](NC(=O)N[C@@H](CCC(=O)O)C(=O)O)C(=O)O)Cc4ccc(Br)cc4)nn3)cc12 (some centres unmarked) [SB-FAP-03],0.00342,0.00068,1.37,18.4,0.0145,0.00289,,,,,,,,
N#C[C@@H]1CCCN1C(=O)CNC(=O)c1ccnc2ccc(OCCCNC(=O)CCc3cn(CCCC[C@H](NC(=O)CN4CCN(CC(=O)O)CCN(CC(=O)O)CC4)C(=O)NCCCCCC(=O)N(CCCC[C@H](NC(=O)N[C@@H](CCC(=O)O)C(=O)O)C(=O)O)Cc4ccc(Br)cc4)nn3)cc12 [SB-FAP-07],0.00065,,1.07,11.7,0.0396,,0.00013,0.21,3.04,0.00792,,,,
N#C[C@@H]1CCCN1C(=O)CNC(=O)c1c(F)cnc2ccccc12 [JHU1220503],,,,,,,,,,,0.223,0.0446,0.688,> 20
N#C[C@@H]1CCCN1C(=O)CNC(=O)c1ccnc2ccc(OCCCN(Cc3ccc(I)cc3)C(=O)CN3CCN(CC(=O)O)CCN(CC(=O)O)CCN(CC(=O)O)CC3)cc12 [JHU1220627],,,,,,,,,,,0.00141,0.00028,> 2000,836
N#C[C@@H]1CCCN1C(=O)CNC(=O)c1ccnc2cccc(F)c12 [JHU1219438],,,,,,,,,,,0.000912,0.000182,0.0958,> 20
